Results taken from patent US20090054403A1, “Treatment of Post-Traumatic Stress Disorder” (priority 2007, published 2009).

Tests used:
[1] = test system: tissue noradrenaline and dopamine content; test: Tissue catecholamines in beagle dogs dosed b.i.d. for 4.5 days (0.05-5 mg/kg); type: in vivo
Procedure: Male beagle dogs (10-16 kg, Marshall Farms USA Inc, North Rose, N.Y., USA) were used in the study. On the day of the study, dogs were weighed and randomly assigned to be orally dosed with either empty capsules (control) or the appropriate dose of nepicastat (0.05, 0.5, 1.5 or 5 mg.kg^−1; po, b.i.d.) […]. At six hours following the first dose on day-5, the dogs were euthanized with pentobarbital and the tissues (cerebral cortex, renal artery, left ventricle) were rapidly harvested. The tissues were subsequently processed and analysed for noradrenaline and dopamine as described above.
Male beagle dogs (10-16 kg, Marshall Farms USA Inc, North Rose, N.Y.) were used in the study. On the day of the study, dogs were randomly assigned to receive either placebo (empty capsule) or the appropriate dose of 2a. Each dog was dosed twice a day for 4.5 days. 6 h after the first dose on day 5, the dogs were euthanized with pentobarbital and the tissues (cerebral cortex. renal artery, left ventricle) harvested, weighed, placed in iced 0.4 M perchloric acid, frozen in liquid nitrogen and stored at −70° C. until analysis. Tissue NE and DA concentrations were assayed by HPLC using electrochemical detection.

[2] = test system: mean arterial pressure and heart rate; test: Hemodynamic study in conscious, restrained SHR; type: in vivo, spontaneously hypertensive rats (SHR)
Procedure: FIG. 13: Effects of orally administered 2a on mean arterial pressure in conscious, restrained spontaneously hypertensive rats (SHR). SHR were lightly anesthetized with ether and instrumented for measurement of arterial pressure and drug administration. The animals were placed in restrainers and allowed to recover for 30-40 minutes. […] All data are expressed as mean±standard error of mean. n=6-8 per group. […] IR spectra were recorded on a Nicolet SPC FT-IR spectrometer. UV spectra were recorded on a Varian Cary 3 UV-Visible spectrometer, Leeman Labs Inc. Optical rotations were measured in a Perkin-Elmer Model 141 polarimeter. […] Hemodynamic study in SHR. Male SHR (15-16 week old) were used in the study. The animals were lightly anesthetized with ether and the left femoral artery and vein were catheterized for measurement of blood pressure and drug administration, respectively. The animals were placed in restrainers and allowed to recover for 30-40 min. […] The animals were then anesthetized with pentobarbital, placed on a heating pad (37° C.) and ventilated with a Harvard rodent ventilator. After administration of atropine (1 mg/kg, iv) and tubocurarine (1 mg/kg, iv), the animals were pithed through the orbit of the eye with a stainless steel rod. The […] rod was stimulated electrically with 1 ms pulses of 80V at different frequencies (0.15, 0.45, 1.5, 5, 15 Hz) to obtain frequency-pressor response curves.

[3] = test system: dopamine/norepinephrine ratio; test: Dose response of tissue dopamine/norepinephrine ratio 6 hours after a single oral dose; type: in vivo, Sprague-Dawley rats
[4] = test system: aortic contractile response to phenylephrine; test: Aortic contractile response in vitro to phenylephrine after 21 days treatment; type: in vivo, SHR; conditions: 10 mg/kg p.o. daily for 21 days
[5] = test system: mean arterial pressure, renal blood flow; test: Arterial pressure and renal function in anesthetized SHR after iv dosing; type: in vivo; conditions: 3.0 mg/kg i.v.

## Cl.NCc1c[nH]c(=S)n1[C@H]1CCc2c(F)cc(F)cc2C1 [nepicastat, (S)-5-Aminomethyl-1-(5,7-difluoro-1,2,3,4-tetrahydronaphth-2-yl)-2,3-dihydro-2-thioxo-1H-imidazole hydrochloride]
[1]; 5 mg/kg
  maximal increase in DA/NE ratio, artery (renal): 95 fold
  maximal increase in DA/NE ratio, cerebral cortex: 80 fold
  maximal increase in DA/NE ratio, left ventricle: 151 fold
[1]; 5 mg/kg b.i.d. po
  decrease in noradrenaline, cerebral cortex: 96%
  decrease in noradrenaline, left ventricle: 91%
  decrease in noradrenaline, renal artery: 88%
  increase in dopamine, cerebral cortex: 166%
  increase in dopamine, left ventricle: 700%
  increase in dopamine, renal artery: 627%
[1]; renal artery, left ventricle, cerebral cortex
  doses at which catecholamine changes attained statistical significance (p<0.05): > 0.1 mg/kg/day
[2]; 10 mg/kg oral
  decrease in heart rate: 9.8%
  maximal decrease in mean blood pressure: 53±4 mmHg
  reduction in mean blood pressure relative to vehicle control: 33%
[2]; 10 mg/kg, 4 hours after dosing
  decrease in pressure: −46 mmHg
[2]; 30 mg/kg oral
  decrease in heart rate: 10.5%
[2]; acute oral administration
  duration of antihypertensive effects: > 4 h
[2]; oral dosing
  time to plateau of antihypertensive response: 3 to 4 h
[3]
  dose with significant increase in dopamine/norepinephrine ratio, left ventricle: 1.0 mg/kg
  dose with significant increase in dopamine/norepinephrine ratio, mesenteric artery: 3.0 mg/kg
[3]; only at this dose
  dose with significant increase in dopamine/norepinephrine ratio, cerebral cortex: 100 mg/kg
[4]
  aortic phenylephrine responsiveness: restored phenylephrine responsiveness
[5]
  renal blood flow, urine production, urinary sodium and potassium excretion: did not lower renal blood flow or alter urine production or urinary excretion of sodium or potassium
[5]; 3 hour period
  mean arterial pressure: decreased mean arterial pressure
